The record followed here is patent US20220081415A1, “Amino Acid Derivatives for the Treatment of Inflammatory Diseases” (The Roskamp Institute, priority 2019, published 2022).

Structures can show the parent of a compound that is named as a salt.

The subject of this assay is NF-kB activation induced by TNFα. Kind of assay: TNFα Luciferase assay: inhibition of NF-kB activation induced by TNFα in HEK293/NF-kB luciferase cells. It is filed as cell-based. The conditions noted are these: Homo sapiens, 4 h, 25 ng/ml of TNF-α for four hours, quadruplicate, read-out: IC50, concentration at which NF-kB activation was reduced by 50%. As to the method:
Determination of Inhibition of NF-kB Activation Induced by TNFα . . . In Vitro Assay
The ability of a compound disclosed herein to inhibit NFkB activation induced by TNFα was determined using the TNFα Luciferase assay. The HEK293/NF-kB luciferase cell line was obtained by cotransfection of pNFkB-luc vector with pHyg (Panomics, CA, USA) followed by hygromycin selection. HEK293/NFkB Luciferase cells were grown in DMEM medium supplemented with 10% fetal bovine serum, 100 U/ml of penicillin, 100 ng/ml of streptomycin/Fungizone, and 100 μg/ml of hygromycin B as the selecting agent. HEK293 NFkB Luciferase cells were grown in T75 flasks (Nunc™ Cell Culture Treated EasYFlasks™) in a cell culture incubator at 37° C. and 5% CO2.
Confluent T75 cell culture flasks (approximately 8-10 million of cells per flask) were washed with 10 ml of sterile PBS (without calcium and magnesium) under a biosafety cabinet. After aspiration of the PBS with a sterile glass pipette, the layer of cells (for each T75 flask) was covered with 1 ml of TrypLE™ Express without phenol red (Gibco) at room temperature. After one minute of incubation, HEK293 were mechanically resuspended in the TrypLE by tapping the side of the flask. The cells were then resuspended with 10 ml of pre-warmed complete culture medium and transferred to a conical tube. Cells were centrifuged for 5 minutes at 4000 rpm (1000 g) at room temperature. The cellular pellet was resuspended with 24 ml of pre-warmed cell culture media and […] of cell suspension (approximately 80,000 cells per well) was plated per well in 96-well cell culture plates (Costar #3599, Corning, N.Y., USA) using a multichannel pipette and reversed pipetting to prevent air bubble formation. After plating, the cells were maintained overnight in the cell culture incubator before being treated. For each 96 well cell culture plate, 8 wells were used as “control wells” (only culture medium added) and to 8 wells only TNFα was added. The NF-kB Luciferase reporter cell line was challenged with 25 ng/ml of TNF-α for four hours in the presence and absence (control conditions) of a dose range of the different compounds to be tested. For each compound, a dose range of concentrations was tested in quadruplicate and used to determine an IC50.
Luciferase activity was monitored using the Luc-Screen® Extended-Glow Luciferase Reporter Gene Assay System by chemoluminescence according to the instruction of the manufacturer (Invitrogen) and a BioTek Synergy HT plate reader (BioTek Instruments, VT, USA).
Regarding `COc1cccc(C(=O)NC(Cc2ccccc2)C(=O)N2CC=CCC2c2cccnc2)c1` (stereo not drawn) [Compound 16, 3-methoxy-N-(1-oxo-3-phenyl-1-(6-(pyridin-3-yl)-5,6-dihydropyridin-1 (2H)-yl)propan-2-yl)benzamide], the IC50 came out at 2000 nM.

Take `COc1cc(C(=O)N[C@@H](Cc2ccccc2)C(=O)N2CC=CCC2c2cccnc2)ccc1F` (stereo partly drawn) [Compound 34, 4-fluoro-3-methoxy-N-((2S)-1-oxo-3-phenyl-1-(6-(pyridin-3-yl)-5,6-dihydropyridin-1(2H)-yl)propan-2-yl)benzamide]: the IC50 was found to be 2500 nM. The result for `COc1cc(F)cc(C(=O)NC(Cc2ccccc2)C(=O)N2CC=CCC2c2cccnc2)c1` (stereo not drawn) [Compound 24, 3-fluoro-5-methoxy-N-(1-oxo-3-phenyl-1-(6-(pyridin-3-yl)-5,6-dihydropyridin-1(2H)-yl)propan-2-yl)benzamide] reads 4000 nM; that for `COc1ccc(C(=O)NC(Cc2ccccc2)C(=O)N2CC=CCC2c2cccnc2)cc1OC` (stereo not drawn) [Compound 21, 3,4-dimethoxy-N-(1-oxo-3-phenyl-1-(6-(pyridin-3-yl)-5,6-dihydropyridin-1(2H)-yl)propan-2-yl)benzamide], 4500 nM. The result for `COc1cccc(C(=O)N[C@H](Cc2ccccc2)C(=O)N2CC=CCC2c2cccnc2)c1` (stereo partly drawn) [Compound 25, 3-methoxy-N-((2R)-1-oxo-3-phenyl-1-(6-(pyridin-3-yl)-5,6-dihydropyridin-1(2H)-yl)propan-2-yl)benzamide] reads 2500 nM; that for `COc1cc(Cl)ccc1C(=O)N[C@H](Cc1ccccc1)C(=O)N1CC=CCC1c1cccnc1` (stereo partly drawn) [Compound 30, 4-chloro-2-methoxy-N-((2R)-1-oxo-3-phenyl-1-(6-(pyridin-3-yl)-5,6-dihydropyridin-1(2H)-yl)propan-2-yl)benzamide], 4300 nM. With `O=C(N[C@@H](Cc1ccccc1)C(=O)N1CC=CCC1c1cccnc1)c1cccc(NC(=O)C2CCC2)c1` (stereo partly drawn) [Compound 45, 3-(cyclobutanecarboxamido)-N-((2S)-1-oxo-3-phenyl-1-(6-(pyridin-3-yl)-5,6-dihydropyridin-1(2H)-yl)propan-2-yl)benzamide], the IC50 came to 75.4 nM.

In the case of `CCCC(=O)Nc1ccc(C(=O)N[C@@H](Cc2ccccc2)C(=O)N2CC=CCC2c2cccnc2)cc1` (stereo partly drawn) [Compound 48, 4-butyramido-N-((2S)-1-oxo-3-phenyl-1-(6-(pyridin-3-yl)-5,6-dihydropyridin-1(2H)-yl)propan-2-yl)benzamide], the IC50 was found to be 114 nM. For `CCCC(=O)Nc1cccc(C(=O)N[C@@H](CC2CCCCC2)C(=O)N2CC=CCC2c2cccnc2)c1` (stereo partly drawn) [Compound 66, 3-butyramido-N-((2S)-3-cyclohexyl-1-oxo-1-(6-(pyridin-3-yl)-5,6-dihydropyridin-1(2H)-yl)propan-2-yl)benzamide] the value was 346 nM; for `COc1ccccc1C(=O)N[C@H](Cc1ccccc1)C(=O)N1CC=CCC1c1cccnc1` (stereo partly drawn) [Compound 32, 2-methoxy-N-((2R)-1-oxo-3-phenyl-1-(6-(pyridin-3-yl)-5,6-dihydropyridin-1(2H)-yl)propan-2-yl)benzamide], 8600 nM; for `C[C@H](NC(=O)c1ccc([N+](=O)[O-])cc1)C(=O)N1CC=CCC1c1cccnc1` (stereo partly drawn) [Compound 13, 4-nitro-N-((2S)-1-oxo-1-(6-(pyridin-3-yl)-5,6-dihydropyridin-1(2H)-yl)propan-2-yl)benzamide], 276000 nM. Consider `O=C(N[C@@H](Cc1ccccc1)C(=O)N1CC=CCC1c1cccnc1)c1ccc2ccccc2n1` (stereo partly drawn) [Compound 49, N-((2S)-1-oxo-3-phenyl-1-(6-(pyridin-3-yl)-5,6-dihydropyridin-1(2H)-yl)propan-2-yl)quinoline-2-carboxamide], for which the IC50 was 174 nM. For `COc1ccc(C)c(C(=O)N[C@H](Cc2ccccc2)C(=O)N2CC=CCC2c2cccnc2)c1` (stereo partly drawn) [Compound 29, 5-methoxy-2-methyl-N-((2R)-1-oxo-3-phenyl-1-(6-(pyridin-3-yl)-5,6-dihydropyridin-1(2H)-yl)propan-2-yl)benzamide] the value was 8000 nM; for `O=C(NC(Cc1ccccc1)C(=O)N1CC=CCC1c1cccnc1)c1cccc(Cl)c1` (stereo not drawn) [Compound 18, 3-chloro-N-(1-oxo-3-phenyl-1-(6-(pyridin-3-yl)-5,6-dihydropyridin-1(2H)-yl)propan-2-yl)benzamide], 7000 nM. Take `CCCCC(=O)Nc1cccc(C(=O)NC(Cc2ccccc2)C(=O)N2CC=CCC2c2cccnc2)c1` (stereo not drawn) [Compound 36, N-(1-oxo-3-phenyl-1-(6-(pyridin-3-yl)-5,6-dihydropyridin-1(2H)-yl)propan-2-yl)-3-pentanamidobenzamide]: the IC50 stood at 150 nM. As for `Nc1cccc(C(=O)NC(Cc2ccccc2)C(=O)N2CC=CCC2c2cccnc2)c1` (stereo not drawn) [Compound 38, 3-amino-N-(1-oxo-3-phenyl-1-(6-(pyridin-3-yl)-5,6-dihydropyridin-1(2H)-yl)propan-2-yl)benzamide], the IC50 was determined as 250 nM. Consider `CCCC(=O)Nc1ccccc1C(=O)N[C@@H](Cc1ccccc1)C(=O)N1CC=CCC1c1cccnc1` (stereo partly drawn) [Compound 47, 2-butyramido-N-((2S)-1-oxo-3-phenyl-1-(6-(pyridin-3-yl)-5,6-dihydropyridin-1(2H)-yl)propan-2-yl)benzamide], for which the IC50 worked out at 159 nM.

In the case of `NCCCC(=O)Nc1cccc(C(=O)N[C@@H](Cc2ccccc2)C(=O)N2CC=CCC2c2cccnc2)c1` (stereo partly drawn) [Compound 55, 3-(4-aminobutanamido)-N-((2S)-1-oxo-3-phenyl-1-(6-(pyridin-3-yl)-5,6-dihydropyridin-1(2H)-yl)propan-2-yl)benzamide hydrochloride], the IC50 came to 170 nM. For `CCCC(=O)Nc1cccc(C(=O)NC(Cc2ccccc2)C(=O)N2CC=CCC2c2cc3ccccc3nc2Cl)c1` (stereo not drawn) [Compound 67, 3-butyramido-N-(1-(2-(2-chloroquinolin-3-yl)-3,6-dihydropyridin-1(2H)-yl)-1-oxo-3-phenylpropan-2-yl)benzamide] the value was 1700 nM; for `O=C(CCCC[C@@H]1SC[C@@H]2NC(=O)N[C@@H]21)Nc1cccc(C(=O)N[C@@H](Cc2ccccc2)C(=O)N2CC=CCC2c2cccnc2)c1` (stereo partly drawn) [Compound 41, 3-{5-[(3aS,4S,6aR)-2-oxo-hexahydro-1H-thieno[3,4-d]imidazol-4-yl]pentanamido}-N-[(2S)-1-oxo-3-phenyl-1-{1,2,3,6-tetrahydro-[2,3′-bipyridin]-1-yl}propan-2-yl]benzamide], 250 nM. The result for `CC[C@H](C)C(=O)Nc1cccc(C(=O)N[C@@H](Cc2ccccc2)C(=O)N2CC=CCC2c2cccnc2)c1` (stereo partly drawn) [Compound 57, 3-((S)-2-methylbutanamido)-N-((2S)-1-oxo-3-phenyl-1-(6-(pyridin-3-yl)-5,6-dihydropyridin-1(2H)-yl)propan-2-yl)benzamide] reads 121 nM; that for `C[C@@H](C(=O)N1CC=CCC1c1cccnc1)N1C(=O)c2ccccc2C1=O` (stereo partly drawn) [Compound 1, 2-((2S)-1-oxo-1-(6-(pyridin-3-yl)-5,6-dihydropyridin-1(2H)-yl)propan-2-yl)isoindoline-1,3-dione], 375000 nM; that for `COc1cc(C(=O)N[C@H](Cc2ccccc2)C(=O)N2CC=CCC2c2cccnc2)ccc1F` (stereo partly drawn) [Compound 31, 4-fluoro-3-methoxy-N-((2R)-1-oxo-3-phenyl-1-(6-(pyridin-3-yl)-5,6-dihydropyridin-1(2H)-yl)propan-2-yl)benzamide], 1700 nM.

In the case of `COc1cccc(C(=O)N[C@@H](Cc2ccccc2)C(=O)N2CC=CCC2c2cccnc2)c1` (stereo partly drawn) [Compound 35, 3-methoxy-N-((2S)-1-oxo-3-phenyl-1-(6-(pyridin-3-yl)-5,6-dihydropyridin-1(2H)-yl)propan-2-yl)benzamide], the IC50 came out at 1600 nM. For `O=C(C(Cc1ccccc1)N1C(=O)c2ccccc2C1=O)N1CC=CCC1c1cccnc1` (stereo not drawn) [Compound 7, 2-(1-oxo-3-phenyl-1-(6-(pyridin-3-yl)-5,6-dihydropyridin-1(2H)-yl)propan-2-yl)isoindoline-1,3-dione] the value was 225000 nM; for `CCCC(=O)Nc1cccc(C(=O)N[C@@H](Cc2ccccc2)C(=O)N2CCCCC2c2cccnc2)c1` (stereo partly drawn) [Compound 63, 3-butyramido-N-((2S)-1-oxo-3-phenyl-1-(2-(pyridin-3-yl)piperidin-1-yl)propan-2-yl)benzamide], 58.4 nM; for `O=C(NC(Cc1ccccc1)C(=O)N1CC=CCC1c1cccnc1)c1cccc(C(F)(F)F)c1` (stereo not drawn) [Compound 23, N-(1-oxo-3-phenyl-1-(6-(pyridin-3-yl)-5,6-dihydropyridin-1(2H)-yl)propan-2-yl)-3-(trifluoromethyl)benzamide], 6500 nM.
